Measured values reported in the NIST ThermoML archive (doi:10.1021/acs.jced.8b00132).
“And” between values parts separate entries of the source, which are not always exact repeats. Equal values may be shown once.

O=C(C(F)(F)C(F)(F)F)C(F)(C(F)(F)F)C(F)(F)F [dodecafluoro-2-methylpentan-3-one]
Conditions | thermal conductivity
432.7 K, 49519 kPa, Liquid, transient hot wire | 0.06451 W/m/K
432.71 K, 656 kPa, Gas, hot wire | 0.02379 W/m/K
432.72 K, 1422 kPa, Gas, transient hot wire | 0.02498 W/m/K
432.72 K, 49517 kPa, Liquid, transient hot wire | 0.06454 W/m/K
432.77 K, 1418 kPa, Gas, transient hot wire | 0.02496 W/m/K
432.77 K, 1419 kPa, Gas, transient hot wire | 0.02504 W/m/K
432.79 K, 1709 kPa, Liquid, transient hot wire | 0.03809 W/m/K
432.79 K, 34245 kPa, Liquid, transient hot wire | 0.05883 W/m/K
432.8 K, 1709 kPa, Liquid, transient hot wire | 0.03764 W/m/K
432.8 K, 1977 kPa, Liquid, transient hot wire | 0.03806 W/m/K
432.81 K, 652 kPa, Gas, hot wire | 0.02381 W/m/K
432.81 K, 655 kPa, Gas, hot wire | 0.02367 W/m/K
432.81 K, 1704 kPa, Liquid, transient hot wire | 0.03807 W/m/K
432.81 K, 1706 kPa, Liquid, transient hot wire | 0.03761 W/m/K
432.81 K, 1977 kPa, Liquid, transient hot wire | 0.03794 W/m/K
432.81 K, 22767 kPa, Liquid, transient hot wire | 0.05368 W/m/K
432.82 K, 375 kPa, Gas, hot wire | 0.02254 W/m/K
432.83 K, 376 kPa, Gas, hot wire | 0.02257 W/m/K
432.83 K, 22777 kPa, Liquid, transient hot wire | 0.05369 W/m/K
432.84 K, 2631 kPa, Liquid, transient hot wire | 0.03896 W/m/K
432.84 K, 49496 kPa, Liquid, transient hot wire | 0.06439 W/m/K
432.84 K, 49505 kPa, Liquid, transient hot wire | 0.06438 W/m/K
432.86 K, 2631 kPa, Liquid, transient hot wire | 0.03897 W/m/K
432.87 K, 158 kPa, Gas, hot wire | 0.02102 W/m/K
432.87 K, 159 kPa, Gas, hot wire | 0.02111 W/m/K
432.87 K, 3941 kPa, Liquid, transient hot wire | 0.04063 W/m/K
432.88 K, 1297 kPa, Gas, transient hot wire | 0.02344 W/m/K
432.88 K, 1298 kPa, Gas, transient hot wire | 0.02358 W/m/K
432.88 K, 1418 kPa, Gas, transient hot wire | 0.02521 W/m/K
432.9 K, 43 kPa, Gas, hot wire | 0.02081 W/m/K
432.9 K, 650 kPa, Gas, hot wire | 0.02367 W/m/K
432.91 K, 42 kPa, Gas, hot wire | 0.02089 W/m/K
432.93 K, 374 kPa, Gas, hot wire | 0.02268 W/m/K
432.93 K, 375 kPa, Gas, hot wire | 0.02269 W/m/K
432.93 K, 1976 kPa, Liquid, transient hot wire | 0.03821 W/m/K
432.93 K, 34232 kPa, Liquid, transient hot wire | 0.05866 W/m/K
432.93 K, 34243 kPa, Liquid, transient hot wire | 0.05865 W/m/K
432.94 K, 1977 kPa, Liquid, transient hot wire | 0.03807 W/m/K
432.95 K, 1709 kPa, Liquid, transient hot wire | 0.03814 W/m/K
432.98 K, 22754 kPa, Liquid, transient hot wire | 0.05357 W/m/K
432.98 K, 49470 kPa, Liquid, transient hot wire | 0.06431 W/m/K
432.99 K, 157 kPa, Gas, hot wire | 0.02107 W/m/K and 0.02099 W/m/K
432.99 K, 1298 kPa, Gas, transient hot wire | 0.02366 W/m/K
433 K, 1299 kPa, Gas, transient hot wire | 0.02363 W/m/K
433 K, 6150 kPa, Liquid, transient hot wire | 0.04309 W/m/K
433 K, 15091 kPa, Liquid, transient hot wire | 0.04962 W/m/K
433 K, 15095 kPa, Liquid, transient hot wire | 0.04957 W/m/K
433.01 K, 43 kPa, Gas, hot wire | 0.02102 W/m/K and 0.02104 W/m/K
433.02 K, 647 kPa, Gas, hot wire | 0.02339 W/m/K
433.02 K, 648 kPa, Gas, hot wire | 0.02337 W/m/K
433.02 K, 6152 kPa, Liquid, transient hot wire | 0.04303 W/m/K
433.03 K, 3941 kPa, Liquid, transient hot wire | 0.04082 W/m/K
433.04 K, 373 kPa, Gas, hot wire | 0.02274 W/m/K
433.04 K, 2629 kPa, Liquid, transient hot wire | 0.03906 W/m/K
433.04 K, 2631 kPa, Liquid, transient hot wire | 0.03946 W/m/K
433.05 K, 372 kPa, Gas, hot wire | 0.02268 W/m/K
433.05 K, 3942 kPa, Liquid, transient hot wire | 0.04075 W/m/K
433.08 K, 34226 kPa, Liquid, transient hot wire | 0.05871 W/m/K
433.08 K, 34233 kPa, Liquid, transient hot wire | 0.05874 W/m/K
433.11 K, 155 kPa, Gas, hot wire | 0.02111 W/m/K
433.12 K, 156 kPa, Gas, hot wire | 0.02101 W/m/K
433.12 K, 646 kPa, Gas, hot wire | 0.02323 W/m/K
433.12 K, 9670 kPa, Liquid, transient hot wire | 0.04595 W/m/K
433.12 K, 9671 kPa, Liquid, transient hot wire | 0.04584 W/m/K
433.12 K, 49466 kPa, Liquid, transient hot wire | 0.06434 W/m/K
433.13 K, 43 kPa, Gas, hot wire | 0.02102 W/m/K
433.13 K, 644 kPa, Gas, hot wire | 0.02306 W/m/K
433.13 K, 22732 kPa, Liquid, transient hot wire | 0.05371 W/m/K
433.13 K, 22752 kPa, Liquid, transient hot wire | 0.05367 W/m/K
433.13 K, 49459 kPa, Liquid, transient hot wire | 0.06442 W/m/K
433.14 K, 43 kPa, Gas, hot wire | 0.02099 W/m/K
433.14 K, 1300 kPa, Gas, transient hot wire | 0.02391 W/m/K
433.16 K, 372 kPa, Gas, hot wire | 0.02272 W/m/K and 0.02276 W/m/K
433.16 K, 15084 kPa, Liquid, transient hot wire | 0.04944 W/m/K
433.19 K, 6155 kPa, Liquid, transient hot wire | 0.04297 W/m/K
433.19 K, 6159 kPa, Liquid, transient hot wire | 0.04336 W/m/K
433.19 K, 15094 kPa, Liquid, transient hot wire | 0.04947 W/m/K
433.21 K, 1138 kPa, Gas, transient hot wire | 0.02265 W/m/K and 0.02278 W/m/K
433.24 K, 155 kPa, Gas, hot wire | 0.02111 W/m/K
433.24 K, 1299 kPa, Gas, transient hot wire | 0.02422 W/m/K
433.24 K, 3943 kPa, Liquid, transient hot wire | 0.04078 W/m/K
433.24 K, 3944 kPa, Liquid, transient hot wire | 0.04039 W/m/K
433.24 K, 34207 kPa, Liquid, transient hot wire | 0.05868 W/m/K
433.24 K, 34211 kPa, Liquid, transient hot wire | 0.05857 W/m/K
